This passage reports TGI and GI50 results from PubChem BioAssay (NCI).

Usually TGI stands for the concentration at which net growth stops. A lower TGI goes with greater sensitivity of the cells. Usually GI50 stands for the concentration that inhibits growth by half.

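Briefly, cells in 96-well plates were exposed to five compound concentrations for 48 h, and endpoints were estimated by linear interpolation. Abbreviation: GI50, concentration required for 50% inhibition of growth. At the TGI there is no net growth.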 Where a SMILES comes first, the peptide text is derived from it. The star is where a group is joined. Boc = CC(C)(C)OC(=O)*

Holding throughout (assay): DTP human tumour cell line panel, 48 h
The test system of test [1] is BT-549 breast.
For test [2], the system named is CAKI-1 renal.
Test [3] deals with CCRF-CEM leukemia.
In test [4] the test system is HT29 colon.
Test [5] deals with SF-539 CNS.
Test [6] deals with UACC-257 melanoma.
In test [7] the test system is RXF 393 renal.
The test system of test [8] is T-47D breast.
In test [9] the test system is TK-10 renal.
The subject of test [10] is NCI-H522 lung.

As to `Cc1nc2c(Br)cc(Br)cc2c(=O)n1-c1ccccc1N`, the TGI is 87.6 µM in test [1]; 96.2 µM in test [2]; > 100 µM in test [3]; 65.4 µM in [4]; > 100 µM in [5]; 86.5 µM in test [6].

For `O=C1CC(O)c2c(Cl)sc(Cl)c21` (configuration not stated), the concentration for total growth inhibition (TGI) in [1] was determined as 29.7 µM; in [2], 9.68 µM; in test [3], 4.68 µM; in [4], 10 µM; in test [7] it was 12.2 µM; in test [5], 22.9 µM. For the same compound, the concentration for total growth inhibition (TGI) in test [8] is > 24.2 µM; in [9], 30.1 µM; in test [6], 27.7 µM.

Regarding `CN(C)c1ccc(/C=C2\N=C(c3ccccc3)N(c3nc4c(Cl)cc(Cl)cc4s3)C2=O)cc1`, the concentration for total growth inhibition (TGI) in test [1] is > 100 µM; in [2], > 100 µM; in test [3], 23.6 µM; in test [4] it was > 100 µM; in test [5], > 100 µM; in [8], > 100 µM. Moreover, the TGI in test [9] and in test [6] was > 100 µM throughout.

In the case of `COc1cccc(-c2cc(=O)c3cc(C)cnc3[nH]2)c1`, the TGI in [1] was > 100 µM; in [2] it was > 100 µM; in [3], > 100 µM; in test [4], 0.191 µM; in [5] it was > 100 µM; in test [8], > 100 µM. Further, the TGI in [9] and in [6] was > 100 µM each time.

`Brc1ccc2c(c1)C1=C(CO2)Cc2ccccc2O1`: the TGI in test [1] is 33 µM; in test [2], 32.3 µM; in test [3], > 100 µM; in test [4], 62.8 µM; in [10] it was 39.8 µM; in test [5], 36.3 µM. The TGI was 33.2 µM in test [8], 37.2 µM in test [9] and 32.6 µM in [6].

Regarding `Cc1nn(-c2ccccc2)c(C)c1/C=N/NC(=O)c1sc(=S)n(-c2ccccc2)c1N`, the TGI in test [1] is > 100 µM; in test [2], 7.53 µM; in test [3] it was > 100 µM; in test [4], 19.7 µM; in test [7], 4.36 µM; in [5] it was 25.6 µM. In addition, the concentration for total growth inhibition (TGI) in test [8] was > 100 µM; in test [9] it was 7.19 µM; in [6], > 100 µM.

With `CC[C@H]1C=CCC[C@@]2(C[C@@H]3CC[C@@H]4[C@H](C(=O)OCCCCCCCCCCCCCCCC(=O)N(CCCN)C[C@@H](O)CCN)[C@]5(CCC[C@@H](C)O5)NC(=[N+]34)N2)O1`, the TGI in [1] came to 2.61 µM; in [4], 1.23 µM; in test [10], 0.573 µM; in test [7], 2.38 µM; in test [5] it was 2.37 µM; in test [8] it was 5.56 µM. In addition, the values for the TGI in [9] and in test [6] were 4.52 µM and 0.573 µM, respectively.

As to `CC(NC(=O)C(NC(=O)OC(C)(C)C)C(C)C)C(=O)NCC(=O)O` (stereo not drawn) (Boc-Val-Ala-Gly-OH; configuration not given here), the TGI in test [1], in [2], in [4], in test [10], in test [7] and in test [5] was > 100 µM throughout. For the same compound, the TGI in [8], in test [9] and in [6] was > 100 µM in each case.

Regarding `CN(C)CCOc1ccc(-c2c(Oc3ccc(Cl)cc3)c(=O)oc3ccccc23)cc1`, the concentration for total growth inhibition (TGI) is 28.3 µM in test [1]; 39.6 µM in test [2]; > 29 µM in [3]; > 38.7 µM in test [4]; 20.9 µM in test [10]; > 48.3 µM in test [7]. For the same compound, the total growth inhibition concentration (TGI) is > 62.5 µM in test [5], > 100 µM in test [8] and 29.9 µM in [9].

As for `CSc1n[n+](C)cc(N)c1N`, the TGI in [1], in test [2], in test [3], in test [4], in [10] and in test [5] was > 100 µM throughout. Also, the concentration for total growth inhibition (TGI) in test [8], in [9] and in test [6] was > 100 µM in each case.

With `O=S1(=O)c2ccccc2N2CCCc3cc(Cl)cc1c32`, the TGI in [1] was > 100 µM; in test [2] it was > 100 µM; in [3] it was > 100 µM; in [4], > 100 µM; in test [7], 51.3 µM; in test [5], > 100 µM. Besides, the concentration for total growth inhibition (TGI) in test [6] is > 100 µM.

Consider `O=C(c1cccs1)N(C(=O)N1CCC(c2ccccc2)CC1)c1ccccc1`, for which the TGI in test [1], in test [2], in test [3], in test [4], in test [7] and in [5] was > 100 µM each time. Besides, the TGI in test [8] is 93.5 µM; in test [9], > 100 µM; in test [6], > 100 µM.

Regarding `C=C[C@H]1CN2CC[C@H]1C[C@@H]2[C@@H](O)c1ccnc2ccccc12`, the total growth inhibition concentration (TGI) in test [1], in test [2], in test [4], in test [10], in test [7] and in test [5] was > 100 µM in each case. In addition, the TGI in test [8], in test [9] and in [6] was > 100 µM in each case.

As to `O=C1/C(=C/c2cccs2)N=C(c2ccccc2)N1C1Nc2cc3c(cc2S1)NC(N1C(=O)/C(=C/c2cccs2)N=C1c1ccccc1)S3` (configuration not stated), the TGI in test [1] is 35.1 µM; in test [2] it was > 100 µM; in [4] it was > 100 µM; in test [10] it was 31.4 µM; in test [7], 78.8 µM; in [5] it was 31.3 µM. Moreover, the total growth inhibition concentration (TGI) in [8], in test [9] and in test [6] was > 100 µM throughout.

Regarding `CC(=O)O[C@H]1/C(=C/c2ccc(N(C)C)cc2)C[C@H]2[C@@H]3CC=C4C[C@@H](N5CCCC5)CC[C@]4(C)[C@H]3CC[C@]12C`, the total growth inhibition concentration (TGI) in [1], in test [4], in [7], in [5], in [8] and in test [9] was > 100 µM throughout. The TGI in test [6] was > 100 µM.

As to `COc1ccc(-c2cn3ccnc3c(-c3ccc4ncn(C5CCCCC5)c4c3)n2)cc1`, the GI50 in [1] was 0.41 µM; in [2], 0.757 µM; in test [3], 1.64 µM; in test [10], 0.424 µM; in test [8], 0.761 µM; in test [9], 2.99 µM. Further, in test [6], the GI50 was > 100 µM. The TGI in test [1] is 3.91 µM; in test [2], > 100 µM; in test [3], > 100 µM; in [10], 6.15 µM; in test [8] it was 4.5 µM; in test [9], 68.9 µM. In test [6], the total growth inhibition concentration (TGI) was > 100 µM.

`CCOC(=O)/C(=C\c1ccc(CO)o1)P(=O)(OCC)OCC`: the TGI in [1] was 45 µM; in test [2], > 100 µM; in test [4], > 100 µM; in test [10], 15.4 µM; in test [7], 71.1 µM; in [5], 40.3 µM. Further, the TGI in [8], in test [9] and in test [6] was > 100 µM throughout.

Turning to `COc1ccc(CN=CN/C(C#N)=C(\N)C#N)cc1OC`, the total growth inhibition concentration (TGI) in [1], in test [2], in [3], in [4], in test [10] and in test [5] was > 100 µM throughout. Further, the TGI in [8], in test [9] and in test [6] was > 100 µM each time.

Turning to `Nc1cc(CO)cc(Nc2c3ccccc3nc3occc23)c1`, the TGI in test [1] was 81.6 µM; in [2], 94.9 µM; in [3], > 100 µM; in test [4], 30.5 µM; in [10] it was 39.9 µM; in test [5], 69.6 µM. For the same compound, the concentration for total growth inhibition (TGI) in test [8] is 80.3 µM; in test [9], > 100 µM; in test [6] it was > 100 µM.

`O=C1CSC2(CCN(CCCN3c4ccccc4Sc4ccc(Cl)cc43)CC2)N1`: the concentration for total growth inhibition (TGI) came to 26.1 µM in [1]; 25 µM in [2]; 11.9 µM in test [4]; 23.6 µM in [10]; 16.3 µM in [7]; 26.4 µM in test [5]. For the same compound, the total growth inhibition concentration (TGI) in [8] amounted to 15.6 µM; in test [9] it was 21.2 µM; in test [6] it was 22 µM.

As to `Fc1cccc2nc(-c3ccccc3)cc(OCc3ccccc3)c12`, the TGI in test [1], in [3], in test [4], in test [10], in [7] and in [8] was > 100 µM throughout. For the same compound, the concentration for total growth inhibition (TGI) in test [9] and in [6] was > 100 µM throughout.

`O=C1NC(N2CCOCC2)=N/C1=C\c1ccccc1O`: the concentration for total growth inhibition (TGI) in test [2], in test [3], in test [4], in [10], in test [7] and in [5] was > 100 µM in each case. The TGI in test [8], in test [9] and in test [6] was > 100 µM throughout.

On to `Cc1ccc2[nH]c(=O)c(-c3cnc(=O)[nH]n3)c(O)c2c1`, for which the TGI in test [1], in test [2], in test [3], in [4], in test [7] and in test [5] was > 100 µM each time. For the same compound, the total growth inhibition concentration (TGI) in test [8], in test [9] and in [6] was > 100 µM in each case.

Take `CC(=O)Nc1ccc(Nc2nc(=O)[nH]c(=O)[nH]2)cc1`: the TGI in test [1], in test [2], in test [3], in test [4], in test [10] and in test [5] was > 100 µM in each case. Besides, the TGI in test [8], in test [9] and in test [6] was > 100 µM each time.

Consider `CN(C)Cc1cc(C(=O)O)cc(CN(C)C)c1O`, for which the TGI in [1], in test [2], in test [3], in [4], in test [10] and in test [7] was > 100 µM in each case. Moreover, the TGI in test [8], in test [9] and in [6] was > 100 µM in each case.

As to `CCCCNC(=S)Nc1nc(C(=O)NNS(=O)(=O)c2ccccc2)cs1`, the total growth inhibition concentration (TGI) in test [1] is 70.8 µM; in test [2] it was 69.5 µM; in test [3], > 100 µM; in test [10], > 100 µM; in test [5], > 100 µM; in test [8], > 100 µM. The TGI in test [9] was 99.9 µM; in [6], 53.7 µM.

`Clc1ccc(OCc2nnc(CCCCCCCCc3nnc(COc4ccc(Cl)cc4Cl)o3)o2)c(Cl)c1`: the TGI in [1] is > 100 µM; in test [2] it was 53.4 µM; in test [4], > 100 µM; in test [10] it was > 100 µM; in test [7], > 100 µM; in test [9], > 100 µM. In test [6], the TGI is > 100 µM.

Take `NS(=O)(=O)c1ccc(/C=C/c2cccc(O)c2)cc1`: the GI50 is 50.2 µM in test [2]; 16.1 µM in test [3]; 43.3 µM in [4]; 12.2 µM in test [10]; 36.7 µM in test [5]. Further, the TGI in [2] is > 100 µM; in test [3], > 100 µM; in [4] it was > 100 µM; in test [10], 44.4 µM; in test [7] it was > 100 µM; in test [5], > 100 µM. Besides, the concentration for total growth inhibition (TGI) in test [8] is 87.4 µM; in test [9], 93.7 µM; in test [6] it was > 100 µM.

For the compound `S=C1CC(c2ccc(Cl)cc2)Sc2ccccc2N1` (configuration not stated), the concentration for total growth inhibition (TGI) in [1] was > 100 µM; in test [2] it was > 100 µM; in test [3] it was > 100 µM; in test [4], > 100 µM; in [10], > 100 µM; in [7], 48.6 µM. Besides, the TGI in test [8], in [9] and in [6] was > 100 µM each time.
